Laboratory results published in US20250205195A1, “BENZYLOXY-BENZYLAMINYL AMINO ACID DERIVATIVE FOR ADJUSTING TSLP/TSLPR SIGNAL TRANSMISSION” (AMTIXBIO CO., LTD., priority 2021, published 2025).

How the values were obtained:
[1] = tested on: interleukin-13 (IL-13); test: PMA/ionomycin-induced interleukin-13 in RBL-2H3 cells (ELISA); assay type: cell-based, rat; conditions: RBL-2H3 cells, 0, 1, 2, 4 and 8 µg/mL, 24 h
Experimental: RBL-2H3 cells were seeded at an initial density of 2×10^5 cells/well in a 24-well plate and cultured at 37° C. for 16 to 24 hours. Subsequently, compound 27 of the present invention was added to the RBL-2H3 cell culture medium at final concentrations of 0, 1, 2, 4, and 8 µg/mL, and the cells were cultured at 37° C. for 1 hour. Next, to induce interleukin-13, the culture medium was treated with PMA ([…], Sigma-Aldrich, USA) and ionomycin (Sigma-Aldrich, USA) to final concentrations of 50 ng/mL and […], respectively, and the cells were cultured for an additional 24 hours at 37° C. The culture supernatant was then collected, and the amount of induced interleukin-13 from RBL-2H3 cells was determined using an ELISA kit (R&D Systems, USA) according to the manufacturer's instructions. FIG. 2 (b) represents the results. […] This indicates the anti-inflammatory effect of compound 27 of the present invention.

[2] = tested on: HDM-induced atopic dermatitis mice; test: House dust mite (HDM) atopic dermatitis mouse model, dermatitis score; assay type: in vivo, Nc/Nga mice; conditions: topical or oral, 10 days after administration, vs control group
Excerpt: Nc/Nga mice (Supplier: Central Animal Laboratory, South Korea, Male, 8 weeks old) were used, with 8 mice per group. The experimental animals were allowed free access to Purina Nestle feed (Switzerland) and water. The mice were shaved using clippers and depilatory cream one day (day 0) before applying Df cream (Dermatophagoides farina cream, Biostir AD, Biostir Incorporation). Df cream was applied to the mouse dorsal area twice a week for 5 weeks to induce atopic dermatitis. After confirming lesions in all mice, compound 27 of the present invention was administered topically or orally for 3 weeks (21 days) from 2 weeks after Df cream application. For topical administration, compound 27 was mixed with 100% ethanol to achieve concentrations of 0.3%, 1%, or 3%, and applied once daily. It was applied to both ears (25 μL each) and the dorsal area (70 μL). 100% ethanol was used as the topical vehicle. For oral administration, compound 27 was administered at doses of 25 mpk (once daily, QD), 50 mpk (QD), or 10 mpk (twice daily, BID). […]
Skin indicators were recorded through visual observation once a week (on days 0, 7, 14, 21, 28, and 36). […] Each item was scored as follows: no symptoms (0 points), mild symptoms (1 point), moderate symptoms (2 points), and severe symptoms (3 points). The total score was calculated by summing up scores for all items.

[3] = tested on: skin-specific T cells; test: FACS analysis of T cell fractions in skin tissue isolated from atopic dermatitis patients; assay type: cell-based, human; conditions: patient skin tissue, 16 g/mL, 8 g/mL
Excerpt: For tissues isolated from the skin of atopic dermatitis patients (Yonsei Severance Hospital, South Korea) followed by the treatment of the compound 27 of the present invention, T cell fractions were compared, and the results are presented in FIG. 16 (Data are shown as mean standard deviation (SD). ** P<0.01, * P<0.05).

[4] = tested on: DNCB-induced atopic dermatitis mice; test: DNCB-induced atopic dermatitis mouse model; assay type: in vivo, ICR mice; conditions: vs DNCB-treated group
Experimental: ICR mice (Orient Bio Inc., male, 4 weeks old) were used, with four mice per group. The mice were acclimatized for one week under controlled conditions (23±2° C., humidity 55±10%, 12-hour light/dark cycle, animal facility at Sungkyunkwan University) and were shaved using clippers and depilatory cream before drug treatment. Following the conventional method, 1% DNCB (2,4-dinitrochlorobenzene, Sigma-Aldrich Co., St. Louis, USA) (200 l) was applied to the dorsal area of the mice every 2 days, four times a week for one week. Subsequently, 0.5% DNCB (200 l) was applied again at 2-day intervals, eight times, to induce atopic dermatitis (Ara, J., Mol Cell Toxicol 2019). One week after DNCB treatment, signs of lesions were confirmed in all mice. Then, the mice were topically administered with the compound 27 of the present invention, dissolved in sterile water at a concentration of 1% (w/v), starting from the point of 0.5% DNCB application, once daily for two weeks. The experimental animals were supplied with powdered feed (Purina, Switzerland), and water and feed were freely available throughout the experimental period. Symptoms associated with atopic dermatitis, such as erythema, edema, scaling, crusting, lichenification, inflammation, bleeding and skin dryness, were observed and recorded according to the Scoring Atopic Dermatitis (SCORAD) index in Table 2.
Using the Mosquito Blood Collection System, blood was drawn from the retro-orbital plexus, and serum was separated. Skin tissue proteins were extracted using a homogenizer in 0.2% PBS (phosphate buffer saline). To measure the concentration of IgE, an IgE ELISA kit (Shibayagi, Japan) was used following the manufacturer's instructions, and analysis was performed using an ELISA reader. The concentrations of TNF-α, IL-4, CCL22/MDC, MMP-12, and S100A9 were measured using Luminex® Assays (R&D Systems, USA).
Skin tissues from the mouse dorsal area were separated and fixed in 10% formalin (10% Neutral Buffered Formalin, Kang Dong Trading, South Korea) for 72 hours. The fixed tissues were washed with water for about 1 hour and then processed into paraffin blocks. The paraffin blocks were sectioned into 8 m slices using a microtome, followed by staining with Harris's hematoxylin solution. Subsequently, the sections were treated with 1% HCl-alcohol, neutralized with 0.5% ammonia solution, and stained with Eosin solution. Next, dehydration was performed using alcohol and xylene, and the sections were mounted on slides using Canada balsam. FIGS. 7 (a) and (b) represent the results.
To determine the concentrations of IgE and TSLP in mouse serum, IgE ELISA kit (Shibayagi, JP) and TSLP ELISA kit (R&D systems, USA) were used following the manufacturer's instructions. As shown in FIGS. 8 (a) and (b), the serum concentrations of IgE and TSLP increased in the DNCB-treated group.
Proteins were extracted from skin tissues of atopic dermatitis mice on the dorsal area, and the levels of TNF-α, IL-1β, CCL22/MDC, IL-4, MMP-12, and S100A9 were measured using Luminex® Assays (R&D systems, USA).

## CCC(NC)C(=O)NCc1ccc(OCc2ccc(C(F)(F)F)cc2)cc1 (racemic) [Compound 27, (R)/(S)-2-(methylamino)-N-(4-((4-trifluoromethyl)benzyl)oxy)benzyl)butanamide]
[1]
  amount of induced interleukin-13: decreased proportionally
[2]
  improvement of skin lesions (Modified SCORAD score): superior effect
[3]
  CD69+ T cells and CD103+ T cells: remarkable reduction
  proportion of skin-specific T cells: concentration-dependent significant decrease
[4]; Luminex
  CCL22/MDC level in skin tissue: significant decrease
  IL-1β level in skin tissue: significant decrease
  IL-4 level in skin tissue: significant decrease
  MMP-12 level in skin tissue: significant decrease
  S100A9 level in skin tissue: significant decrease
  TNF-α level in skin tissue: significant decrease
[4]; topical 1% (w/v), once daily, two weeks
  symptoms of dermatitis (SCORAD index): significant reduction
[4]; topical 1% (w/v)
  expression of inflammatory cells (H&E, skin tissue): significant decrease
  serum IgE concentration: decrease
  serum TSLP concentration: decrease
  thickness of the epidermal layer: significant reduction
